Converted amounts (≈) assume the structure as drawn.
Columns and labels:
[1] = tested on: Mycoplasmoides pneumoniae; test: Antibacterial activity against Mycoplasma pneumoniae FH Liu by broth microdilution method; assay type: functional
Clostridium perfringens = test: Antibacterial activity against Clostridium perfringens GAI 5526 by broth microdilution method; assay type: functional
Atopobium parvulum = test: Antibacterial activity against Atopobium parvulum GAI 5542 by broth microdilution method; assay type: functional; conditions: Lancefieldella parvula
Cutibacterium acnes = test: Antibacterial activity against Propionibacterium acnes GAI 5568 by broth microdilution method; assay type: functional
[2] = tested on: Peptoniphilus asaccharolyticus; test: Antibacterial activity against Peptostreptococcus asaccharolyticus GAI 5534 by broth microdilution method; assay type: functional
[3] = tested on: Staphylococcus saccharolyticus; test: Antibacterial activity against Staphylococcus saccharolyticus GAI 5520 by broth microdilution method; assay type: functional
[4] = tested on: Streptococcus intermedius; test: Antibacterial activity against Streptococcus intermedius GAI 7416 by broth microdilution method; assay type: functional
[5] = tested on: Mycoplasmoides pneumoniae; test: Antibacterial activity against Mycoplasma pneumoniae Mac by broth microdilution method; assay type: functional
[6] = tested on: Propionibacterium granulosum; test: Antibacterial activity against Propionibacterium granulosum GAI 7414 by broth microdilution method; assay type: functional; conditions: Cutibacterium granulosum
Finegoldia magna = test: Antibacterial activity against Peptostreptococcus magnus GAI 5528 by broth microdilution method; assay type: functional
[7] = tested on: Peptostreptococcus anaerobius; test: Antibacterial activity against Peptostreptococcus anaerobius GAI 5506 by broth microdilution method; assay type: functional
Staphylococcus aureus [8] = test: microbe, parasite or virus in culture
Staphylococcus aureus [9] = test: microbe, parasite or virus in culture; remark: listed apart in the source
Enterococcus faecalis = test: microbe, parasite or virus in culture; conditions: ATCC 29212
Enterococcus faecium [10] = test: microbe, parasite or virus in culture; conditions: ATCC 19434
Enterococcus faecium [11] = test: Antibacterial activity against vancomycin-resistant Enterococcus faecium KU1778 clinical isolate by broth microdilution method; assay type: functional
Streptococcus pyogenes = test: Antibacterial activity against Streptococcus pyogenes ATCC 12344 by broth microdilution method; assay type: functional
Streptococcus pneumoniae [12] = test: Antibacterial activity against penicillin-susceptible Streptococcus pneumoniae ATCC 49619 in mouse dosed iv 1 hr after infection; assay type: functional; conditions: ATCC 49619, iv
Staphylococcus aureus [13] = test: microbe, parasite or virus in culture; conditions: Smith
Streptococcus pneumoniae [14] = test: Antibacterial activity against penicillin-resistant Streptococcus pneumoniae KT2524 in mouse dosed iv 1 hr after infection; assay type: functional
[15] = tested on: Staphylococcus epidermidis; test: Antibacterial activity against Staphylococcus epidermidis ATCC 12228 by broth microdilution method; assay type: functional
Staphylococcus aureus [16] = test: microbe, parasite or virus in culture; conditions: KMP9
Haemophilus influenzae = test: Antibacterial activity against Haemophilus influenzae TH13 by broth microdilution method; assay type: functional
Streptococcus pneumoniae [17] = test: microbe, parasite or virus in culture; conditions: ATCC 49619
Staphylococcus aureus [18] = test: Antibacterial activity against methicillin-susceptible Staphylococcus aureus Smith in mouse dosed iv 1 hr after infection; assay type: functional
Streptococcus pneumoniae [19] = test: microbe, parasite or virus in culture
Moraxella catarrhalis = test: Antibacterial activity against Moraxella catarrhalis K1209 by broth microdilution method; assay type: functional
Staphylococcus aureus [20] = test: Antibacterial activity against methicillin-resistant Staphylococcus aureus KT0116 in mouse dosed iv 1 hr after infection; assay type: functional
Streptococcus pneumoniae [21] = test: Antibacterial activity against penicillin-susceptible Streptococcus pneumoniae ATCC 6303 in mouse pulmonary infection model assessed as survival at 6.25 mg/kg, ip twice daily for 3 days; assay type: functional; conditions: route intraperitoneal

Row | SMILES | MIC [1] | MIC (Clostridium perfringens) | MIC (Atopobium parvulum) | MIC (Cutibacterium acnes) | MIC [2] | MIC [3] | MIC [4] | MIC [5] | MIC [6] | MIC (Finegoldia magna) | MIC [7] | MIC (Staphylococcus aureus [8]) | MIC (Staphylococcus aureus [9]) | MIC (Enterococcus faecium [11]) | ED50 (Streptococcus pneumoniae [12]) | ED50 (Streptococcus pneumoniae [14]) | MIC (Haemophilus influenzae) | ED50 (Staphylococcus aureus [18]) | MIC (Moraxella catarrhalis) | ED50 (Staphylococcus aureus [20]) | other results
1 | CC[C@H]1OC(=O)[C@H](C)[C@@H](O[C@H]2C[C@@](C)(OC)[C@@H](O)[C@H](C)O2)[C@H](C)[C@@H](O[C@@H]2O[C@H](C)C[C@H](N(C)C)[C@H]2O)[C@](C)(OC)C[C@@H](C)C(=O)[C@H](C)[C@@H](O)[C@]1(C)O [CLARITHROMYCIN] | 0.016 µg/mL (≈ 0.0214 µM) | 1 µg/mL (≈ 1.34 µM) | < 0.004 µg/mL | < 0.004 µg/mL | > 128 µg/mL | 0.063 µg/mL (≈ 0.0842 µM) | < 0.004 µg/mL | 0.016 µg/mL (≈ 0.0214 µM) | < 0.004 µg/mL | 2 µg/mL (≈ 2.67 µM) | < 0.004 µg/mL |  |  |  |  |  |  |  |  |  | 
2 | CC[C@H]1OC(=O)[C@H](C)[C@@H](O[C@H]2C[C@@](C)(OC)[C@@H](O)[C@H](C)O2)[C@H](C)[C@@H](O[C@@H]2O[C@H](C)C[C@H](N(C)C)[C@H]2O)[C@](C)(O)C[C@@H](C)C(=O)[C@H](C)[C@@H](O)[C@]1(C)O [ERYTHROMYCIN] |  |  |  |  |  |  |  |  |  |  |  | > 128 µg/mL | 0.063 µg/mL (≈ 0.0858 µM) | > 128 µg/mL | 1.48 mg/kg | > 100 mg/kg | 2 µg/mL (≈ 2.73 µM) | 2.55 mg/kg | 0.032 µg/mL (≈ 0.0436 µM) | > 100 mg/kg | MIC (Enterococcus faecalis): 2 µg/mL (≈ 2.73 µM); MIC (Enterococcus faecium [10]): 1 µg/mL (≈ 1.36 µM); MIC (Streptococcus pyogenes): 0.008 µg/mL (≈ 0.0109 µM); MIC (Staphylococcus aureus [13]): 0.125 µg/mL (≈ 0.17 µM); MIC [15]: 0.063 µg/mL (≈ 0.0858 µM); MIC (Staphylococcus aureus [16]): 32 µg/mL (≈ 43.6 µM); MIC (Streptococcus pneumoniae [17]): 0.016 µg/mL (≈ 0.0218 µM); MIC (Streptococcus pneumoniae [19]): > 128 µg/mL
3 | C[C@H]1COc2c(N3CCN(C)CC3)c(F)cc3c(=O)c(C(=O)O)cn1c23.C[C@H]1COc2c(N3CCN(C)CC3)c(F)cc3c(=O)c(C(=O)O)cn1c23.O [LEVOFLOXACIN] | 0.125 µg/mL | 0.25 µg/mL | 0.25 µg/mL | 0.25 µg/mL | 2 µg/mL | 0.125 µg/mL | 0.5 µg/mL | 0.063 µg/mL | 0.25 µg/mL | 0.125 µg/mL | 0.125 µg/mL | > 128 µg/mL | 0.125 µg/mL | 64 µg/mL | 24.7 mg/kg | > 100 mg/kg | 0.032 µg/mL | 0.78 mg/kg | 0.063 µg/mL | > 100 mg/kg | MIC (Enterococcus faecalis): 0.5 µg/mL; MIC (Enterococcus faecium [10]): 4 µg/mL; MIC (Streptococcus pyogenes): 0.5 µg/mL; MIC (Staphylococcus aureus [13]): 0.125 µg/mL; MIC [15]: 0.25 µg/mL; MIC (Staphylococcus aureus [16]): > 128 µg/mL
4 | CN(C)c1ccc(O)c2c1C[C@H]1C[C@H]3[C@H](N(C)C)C(O)=C(C(N)=O)C(=O)[C@@]3(O)C(O)=C1C2=O [MINOCYCLINE] | 0.25 µg/mL (≈ 0.546 µM) | 0.063 µg/mL (≈ 0.138 µM) | 0.25 µg/mL (≈ 0.546 µM) | 0.125 µg/mL (≈ 0.273 µM) | 16 µg/mL (≈ 35 µM) | 0.125 µg/mL (≈ 0.273 µM) | 0.25 µg/mL (≈ 0.546 µM) | 0.25 µg/mL (≈ 0.546 µM) | 0.25 µg/mL (≈ 0.546 µM) | 0.125 µg/mL (≈ 0.273 µM) | 0.032 µg/mL (≈ 0.0699 µM) | 16 µg/mL (≈ 35 µM) | 0.063 µg/mL (≈ 0.138 µM) | 0.063 µg/mL (≈ 0.138 µM) | 0.968 mg/kg | 50 mg/kg | 0.5 µg/mL (≈ 1.09 µM) | 0.515 mg/kg | 0.25 µg/mL (≈ 0.546 µM) | 50 mg/kg | MIC (Enterococcus faecium [10]): 0.063 µg/mL (≈ 0.138 µM); MIC (Streptococcus pyogenes): 0.063 µg/mL (≈ 0.138 µM); MIC (Staphylococcus aureus [13]): 0.063 µg/mL (≈ 0.138 µM); MIC [15]: 0.125 µg/mL (≈ 0.273 µM); MIC (Staphylococcus aureus [16]): 4 µg/mL (≈ 8.74 µM); MIC (Streptococcus pneumoniae [17]): 0.032 µg/mL (≈ 0.0699 µM); MIC (Streptococcus pneumoniae [19]): 8 µg/mL (≈ 17.5 µM)
5 | CN[C@H](CC(C)C)C(=O)N[C@H]1C(=O)N[C@@H](CC(N)=O)C(=O)N[C@H]2C(=O)N[C@H]3C(=O)N[C@H](C(=O)N[C@H](C(=O)O)c4cc(O)cc(O)c4-c4cc3ccc4O)[C@H](O)c3ccc(c(Cl)c3)Oc3cc2cc(c3O[C@@H]2O[C@H](CO)[C@@H](O)[C@H](O)[C@H]2O[C@H]2C[C@](C)(N)[C@H](O)[C@H](C)O2)Oc2ccc(cc2Cl)[C@H]1O [VANCOMYCIN] | > 128 µg/mL | 0.5 µg/mL (≈ 0.345 µM) | 2 µg/mL (≈ 1.38 µM) | 0.5 µg/mL (≈ 0.345 µM) | 0.125 µg/mL (≈ 0.0863 µM) | 2 µg/mL (≈ 1.38 µM) | 1 µg/mL (≈ 0.69 µM) | > 128 µg/mL | 0.5 µg/mL (≈ 0.345 µM) | 0.25 µg/mL (≈ 0.173 µM) | 0.25 µg/mL (≈ 0.173 µM) |  |  | > 128 µg/mL | 1.06 mg/kg | 2.37 mg/kg | > 128 µg/mL | 0.88 mg/kg | 64 µg/mL (≈ 44.2 µM) | 1.01 mg/kg | Activity (Streptococcus pneumoniae [21]): 50%; MIC (Streptococcus pneumoniae [17]): 0.25 µg/mL (≈ 0.173 µM); MIC (Streptococcus pneumoniae [19]): 0.5 µg/mL (≈ 0.345 µM)
